Measurements taken from US7118895B2, “Process for producing aglycon by using diglycosidase and flavor-improved food containing the aglycon and converting agent to be used in the process” (Amano Enzyme Inc., priority 2000, dated 2006).

Test system: Crude diglycosidase
Test: Examination of temperature in the conversion into isoflavone aglycons by diglycosidase using soybean materials
Format: biochemical, Penicillium multicolor IAM7153
Parameters: Decomposition efficiency of glycitin family in roasted soy flour / Decomposition efficiency of daidzin family in roasted soy flour / Decomposition efficiency of genistin family in soymilk / Decomposition efficiency of daidzin family in soymilk / Decomposition efficiency of glycitin family in defatted soybean / Decomposition efficiency of daidzin family in defatted soybean: concentration or dose not given beside the values
Outline: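 Temperature series (30-80° C.) of crude diglycosidase, diluted to 1.88 AU/mL in 20 mM acetate pH 4.0, acting on roasted soy flour, soymilk, defatted soybean or soy protein concentrate. Samples quenched with ethanol after 0-6 h, centrifuged, filtered and analyzed by HPLC for glycosides versus aglycons.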

[1] = 30 °C, heat treatment of enzyme: no, 0 h
[2] = 30 °C, heat treatment of enzyme: no, 1 h
[3] = 30 °C, heat treatment of enzyme: no, 3 h
[4] = 30 °C, heat treatment of enzyme: no, 6 h
[5] = 30 °C, heat treatment of enzyme: yes, 6 h
[6] = 45 °C, heat treatment of enzyme: no, 0 h
[7] = 45 °C, heat treatment of enzyme: no, 1 h
[8] = 45 °C, heat treatment of enzyme: no, 3 h
[9] = 45 °C, heat treatment of enzyme: no, 6 h
[10] = 45 °C, heat treatment of enzyme: yes, 6 h
[11] = 55 °C, heat treatment of enzyme: no, 0 h
[12] = 55 °C, heat treatment of enzyme: no, 1 h
[13] = 55 °C, heat treatment of enzyme: no, 3 h
[14] = 55 °C, heat treatment of enzyme: no, 6 h
[15] = 55 °C, heat treatment of enzyme: yes, 6 h
[16] = 65 °C, heat treatment of enzyme: no, 0 h
[17] = 65 °C, heat treatment of enzyme: no, 1 h
[18] = 65 °C, heat treatment of enzyme: no, 3 h
[19] = 65 °C, heat treatment of enzyme: no, 6 h
[20] = 65 °C, heat treatment of enzyme: yes, 6 h
[21] = 80 °C, heat treatment of enzyme: no, 0 h
[22] = 80 °C, heat treatment of enzyme: no, 1 h
[23] = 80 °C, heat treatment of enzyme: no, 3 h
[24] = 80 °C, heat treatment of enzyme: no, 6 h
[25] = 80 °C, heat treatment of enzyme: yes, 6 h

COc1cc2c(=O)c(-c3ccc(O)cc3)coc2cc1O[C@@H]1O[C@H](COC(C)=O)[C@@H](O)[C@H](O)[C@H]1O [acetylglycitin, 6″-O-acetylglycitin]
Decomposition efficiency of glycitin family in defatted soybean (30° C., heat treatment of enzyme no, reaction time 0 h): not detected
Decomposition efficiency of glycitin family in defatted soybean (30° C., heat treatment of enzyme no, reaction time 1 h): not detected
Decomposition efficiency of glycitin family in defatted soybean (30° C., heat treatment of enzyme no, reaction time 3 h): not detected
Decomposition efficiency of glycitin family in defatted soybean (30° C., heat treatment of enzyme no, reaction time 6 h): not detected
Decomposition efficiency of glycitin family in defatted soybean (30° C., heat treatment of enzyme yes, reaction time 6 h): not detected
Decomposition efficiency of glycitin family in concentrated soybean protein [1]: 36.0%
Decomposition efficiency of glycitin family in roasted soy flour [1]: 38.7%
Decomposition efficiency of glycitin family in soymilk [1]: not detected
Decomposition efficiency of glycitin family in concentrated soybean protein [2]: 35.0%
Decomposition efficiency of glycitin family in roasted soy flour [2]: 33.8%
Decomposition efficiency of glycitin family in soymilk [2]: not detected
Decomposition efficiency of glycitin family in concentrated soybean protein [3]: 33.4%
Decomposition efficiency of glycitin family in roasted soy flour [3]: 33.2%
Decomposition efficiency of glycitin family in soymilk [3]: not detected
Decomposition efficiency of glycitin family in concentrated soybean protein [4]: 30.8%
Decomposition efficiency of glycitin family in roasted soy flour [4]: 19.1%
Decomposition efficiency of glycitin family in soymilk [4]: not detected
Decomposition efficiency of glycitin family in concentrated soybean protein [5]: 35.4%
Decomposition efficiency of glycitin family in roasted soy flour [5]: 37.5%
Decomposition efficiency of glycitin family in soymilk [5]: not detected
Decomposition efficiency of glycitin family in defatted soybean (45° C., heat treatment of enzyme no, reaction time 0 h): not detected
Decomposition efficiency of glycitin family in defatted soybean (45° C., heat treatment of enzyme no, reaction time 1 h): not detected
Decomposition efficiency of glycitin family in defatted soybean (45° C., heat treatment of enzyme no, reaction time 3 h): not detected
Decomposition efficiency of glycitin family in defatted soybean (45° C., heat treatment of enzyme no, reaction time 6 h): not detected
Decomposition efficiency of glycitin family in defatted soybean (45° C., heat treatment of enzyme yes, reaction time 6 h): not detected
Decomposition efficiency of glycitin family in concentrated soybean protein [6]: 35.9%
Decomposition efficiency of glycitin family in roasted soy flour [6]: 38.3%
Decomposition efficiency of glycitin family in soymilk [6]: not detected
Decomposition efficiency of glycitin family in concentrated soybean protein [7]: 34.1%
Decomposition efficiency of glycitin family in roasted soy flour [7]: 27.4%
Decomposition efficiency of glycitin family in soymilk [7]: not detected
Decomposition efficiency of glycitin family in concentrated soybean protein [8]: 31.0%
Decomposition efficiency of glycitin family in roasted soy flour [8]: 20.3%
Decomposition efficiency of glycitin family in soymilk [8]: not detected
Decomposition efficiency of glycitin family in concentrated soybean protein [9]: 27.1%
Decomposition efficiency of glycitin family in roasted soy flour [9]: 9.1%
Decomposition efficiency of glycitin family in soymilk [9]: not detected
Decomposition efficiency of glycitin family in concentrated soybean protein [10]: 35.0%
Decomposition efficiency of glycitin family in roasted soy flour [10]: 36.8%
Decomposition efficiency of glycitin family in soymilk [10]: not detected
Decomposition efficiency of glycitin family in defatted soybean (55° C., heat treatment of enzyme no, reaction time 0 h): not detected
Decomposition efficiency of glycitin family in defatted soybean (55° C., heat treatment of enzyme no, reaction time 1 h): not detected
Decomposition efficiency of glycitin family in defatted soybean (55° C., heat treatment of enzyme no, reaction time 3 h): not detected
Decomposition efficiency of glycitin family in defatted soybean (55° C., heat treatment of enzyme no, reaction time 6 h): not detected
Decomposition efficiency of glycitin family in defatted soybean (55° C., heat treatment of enzyme yes, reaction time 6 h): not detected
Decomposition efficiency of glycitin family in concentrated soybean protein [11]: 36.0%
Decomposition efficiency of glycitin family in roasted soy flour [11]: 39.1%
Decomposition efficiency of glycitin family in soymilk [11]: not detected
Decomposition efficiency of glycitin family in concentrated soybean protein [12]: 33.9%
Decomposition efficiency of glycitin family in roasted soy flour [12]: 30.1%
Decomposition efficiency of glycitin family in soymilk [12]: not detected
Decomposition efficiency of glycitin family in concentrated soybean protein [13]: 29.8%
Decomposition efficiency of glycitin family in roasted soy flour [13]: 12.1%
Decomposition efficiency of glycitin family in soymilk [13]: not detected
Decomposition efficiency of glycitin family in concentrated soybean protein [14]: 26.8%
Decomposition efficiency of glycitin family in roasted soy flour [14]: 6.0%
Decomposition efficiency of glycitin family in soymilk [14]: not detected
Decomposition efficiency of glycitin family in concentrated soybean protein [15]: 35.3%
Decomposition efficiency of glycitin family in roasted soy flour [15]: 37.3%
Decomposition efficiency of glycitin family in soymilk [15]: not detected
Decomposition efficiency of glycitin family in defatted soybean (65° C., heat treatment of enzyme no, reaction time 0 h): not detected
Decomposition efficiency of glycitin family in defatted soybean (65° C., heat treatment of enzyme no, reaction time 1 h): not detected
Decomposition efficiency of glycitin family in defatted soybean (65° C., heat treatment of enzyme no, reaction time 3 h): not detected
Decomposition efficiency of glycitin family in defatted soybean (65° C., heat treatment of enzyme no, reaction time 6 h): not detected
Decomposition efficiency of glycitin family in defatted soybean (65° C., heat treatment of enzyme yes, reaction time 6 h): not detected
Decomposition efficiency of glycitin family in concentrated soybean protein [16]: 36.0%
Decomposition efficiency of glycitin family in roasted soy flour [16]: 38.7%
Decomposition efficiency of glycitin family in soymilk [16]: not detected
Decomposition efficiency of glycitin family in concentrated soybean protein [17]: 35.7%
Decomposition efficiency of glycitin family in roasted soy flour [17]: 34.5%
Decomposition efficiency of glycitin family in soymilk [17]: not detected
Decomposition efficiency of glycitin family in concentrated soybean protein [18]: 35.5%
Decomposition efficiency of glycitin family in roasted soy flour [18]: 31.0%
Decomposition efficiency of glycitin family in soymilk [18]: not detected
Decomposition efficiency of glycitin family in concentrated soybean protein [19]: 35.8%
Decomposition efficiency of glycitin family in roasted soy flour [19]: 29.0%
Decomposition efficiency of glycitin family in soymilk [19]: not detected
Decomposition efficiency of glycitin family in concentrated soybean protein [20]: 35.7%
Decomposition efficiency of glycitin family in roasted soy flour [20]: 39.3%
Decomposition efficiency of glycitin family in soymilk [20]: not detected
Decomposition efficiency of glycitin family in defatted soybean (80° C., heat treatment of enzyme no, reaction time 0 h): not detected
Decomposition efficiency of glycitin family in defatted soybean (80° C., heat treatment of enzyme no, reaction time 1 h): not detected
Decomposition efficiency of glycitin family in defatted soybean (80° C., heat treatment of enzyme no, reaction time 3 h): not detected
Decomposition efficiency of glycitin family in defatted soybean (80° C., heat treatment of enzyme no, reaction time 6 h): not detected
Decomposition efficiency of glycitin family in defatted soybean (80° C., heat treatment of enzyme yes, reaction time 6 h): not detected
Decomposition efficiency of glycitin family in concentrated soybean protein [21]: 35.9%
Decomposition efficiency of glycitin family in roasted soy flour [21]: 38.3%
Decomposition efficiency of glycitin family in soymilk [21]: not detected
Decomposition efficiency of glycitin family in concentrated soybean protein [22]: 36.0%
Decomposition efficiency of glycitin family in roasted soy flour [22]: 40.1%
Decomposition efficiency of glycitin family in soymilk [22]: not detected
Decomposition efficiency of glycitin family in concentrated soybean protein [23]: 35.7%
Decomposition efficiency of glycitin family in roasted soy flour [23]: 38.4%
Decomposition efficiency of glycitin family in soymilk [23]: not detected
Decomposition efficiency of glycitin family in concentrated soybean protein [24]: 35.2%
Decomposition efficiency of glycitin family in roasted soy flour [24]: 35.7%
Decomposition efficiency of glycitin family in soymilk [24]: not detected
Decomposition efficiency of glycitin family in concentrated soybean protein [25]: 34.8%
Decomposition efficiency of glycitin family in roasted soy flour [25]: 39.4%
Decomposition efficiency of glycitin family in soymilk [25]: not detected
